Assay results from patent US20120208873A1, “TEA POLYPHENOLS PRODUCTS FOR CEASING SMOKING AND TREATING AND/OR PREVENTING NICOTINE OR NICOTINE-DERIVED COMPOUNDS OR ESTROGEN INDUCED BREAST CANCER” (priority 2011, published 2012).
“Also recorded” adds a separate entry of the source.

Key:
α9-nAChR protein = α9-nAChR protein levels by immunoblotting in MCF-7 cells; assay type: cell-based, human; details: MCF-7
Procedure: (§1) Human mammary gland epithelial adenocarcinomas (MCF7, MDA-MB-231, AU-565, MDA-MB-453, and BT-483) and normal human mammary gland epithelial fibrocystic cell lines (MCF-10A and HBL-100) were purchased from ATCC (American Type Culture Collection, Manassas, Va., USA). MCF-7, MDA-MB-231, and MDA-MB-453 cells were maintained in DMEM, whereas BT-483 cells were maintained in RPMI-1640. Cell growth, proliferation, and viability were determined by the 3-(4,5-dimethylthiazol-2-yl)-2,5-diphenyltetrazolium (MTT) assay. The formazan product was measured by absorbance at 540 nm.
To prepare protein samples, cells were washed once with ice-cold PBS and lysed on ice in cell lysis buffer (50 mM Tris-HCl, pH 8.0, 120 mM […], 0.5% Nonidet P-40, 100 mM sodium fluoride, and 200 μM sodium orthovanadate) containing protease inhibitors as described previously (Shih, Y. L., Liu, H. C., Chen, C. S., Hsu, C. H. et al., J. Agric. Food Chem. 2010, 58, 235-241). Protein (50 μg) from each sample was resolved by 12% SDS-polyacrylamide gel electrophoresis, transferred, and analyzed by Western blotting. Antibodies were purchased from the following vendors: anti-total AKT and protein A/G agarose beads were obtained from Santa Cruz Biotechnology (Santa Cruz, Calif., USA); anti-GAPDH and anti-α9-nAChR antibodies were from Abcam (Cambridge, UK); antiphospho AKT (Ser^473), anti-c-Jun, and anti-c-Fos were from Cell Signaling Technology (Beverly, Mass., USA). The secondary antibodies, alkaline phosphatase-coupled anti-mouse, and anti-rabbit IgG were purchased from Santa Cruz Biotechnology. The specific protein complexes were identified with the chromogenic substrates nitro blue tetrazolium, and 5-bromo-4-chloro-3-indolyl-phosphate from KPL (Gaithersburg, Md., USA). In each experiment, proteins were also probed with anti-GAPDH antibodies as a protein-loading control.

α9-nAChR mRNA = α9-nAChR mRNA by RT-PCR / real-time PCR in MCF-7 cells; assay type: cell-based, human; details: 24 h
Procedure: Total RNA was isolated from human cell lines using TRIzol (Invitrogen, Carlsbad, Calif., USA) according to the manufacturer's protocol. The α9-nAChR subunit-specific primers were synthesized by MB Mission BioTech (Taipei, Taiwan) as described in the previous reports (Chen, C. S., Lee, C. H., Hsieh, C. D., Ho, C. T. et al., Breast Cancer Res. Treat. 2010; Shih, Y. L., Liu, H. C., Chen, C. S., Hsu, C. H. et al., J. Agric. Food Chem. 2010, 58, 235-241). The PCR amplicons were analyzed on 1.2% agarose gels (Amresco, Solon, Ohio, USA) stained with ethidium bromide. The α9-nAChR mRNA intensity was measured and normalized to β-glucuronidase expression. Pictures of the bands were taken using an INFINITY-α digital imaging system (Vilber Lourmat, France), and band intensities were determined using PhotoCapt Version 11.01 software.

AP-1 = assay: ChIP assay of AP-1 binding to the α9-nAChR promoter in MCF-7 cells; assay type: cell-based, human; details: EGCG 10 μM 24 h pretreatment, Nic 10 μM
Procedure: Chromatin immunoprecipitation (ChIP) assays of cultured cells were performed as described previously (Chen, C. S., Lee, C. H., Hsieh, C. D., Ho, C. T. et al., Breast Cancer Res. Treat. 2010; Shih, Y. L., Liu, H. C., Chen, C. S., Hsu, C. H. et al., J. Agric. Food Chem. 2010, 58, 235-241). Briefly, after various regimens of Nic treatment, the cells were fixed with a final concentration of 1% formaldehyde directly added to the cell culture medium at 25° C. for 15 min. The crosslinking reaction was terminated with 0.125 M glycine for 5 min, and the cells were collected into a new Eppendorf tube. The cell lysate was sonicated three times with 10 s bursts to yield input DNA enriched for fragments around 1000 bp in size. A c-Jun (AP-1) antibody (Santa Cruz Biotechnology) was used for the immunoprecipitation reactions. Primers, which detect the a9-nAChR promoter regions, amplified a region from −960 to −1 for 32 cycles (forward: 5′-ATGCAATG CAAGCCTGAGCT-3′ (SEQ ID NO:2) and reverse: 5′-TATA-[…]-3′ (SEQ ID NO:3)). The PCR products were then separated and analyzed by agarose gel electrophoresis.

p53 = assay: ChIP assay of p53 binding to the α9-nAChR promoter in MCF-7 cells; assay type: cell-based, human; details: EGCG 10 μM pretreatment, Nic 10 μM
MCF-7 cells = assay: Cell proliferation (MTT assay) in MCF-7 cells; assay type: cell-based, human
Procedure: as §1

α9-nAChR = molecular target: T1, α9-nAChR (Homo sapiens, UniProt Q9UGM1); assay: [^3H]-Nic equilibrium binding in MCF-7 cells
T1 construct: breast cancer cell proliferation induced by Nic could be mediated through endogenous α9-nAChR; endogenous in cells; host or cells: MCF-7 cell monolayers: wild type, scramble control (Sc) and α9-nAChR siRNA knockdown (Si) clones
Procedure: L-(−)-[N-methyl-^3H]-Nic ([^3[H]-Nic) (71-75 Ci/mmol) was purchased from Dupont/NEN Research Products (Boston, Mass., USA), and free-base Nic (99% pure) was purchased from The Eastman Kodak (Rochester, N.Y., USA). To study the uptake of [^3H]-Nic in MCF-7 cell monolayers (2×10^6 cells/well), cells were rinsed three times with a buffer containing 140 mM NaCl, 5.4 mM KCl, 1.8 mM CaCl2, 0.8 mM Mg504, 5 mM glucose, and 25 mM Hepes/Tris (pH 7.4). […] Nonspecific binding was determined by the addition of […] Nic. Total binding was evaluated for each concentration in quintuplicate, and blanks were determined in triplicate. The uptake of [^3H]-Nic was halted by aspiration of the uptake medium and washing of the wells three times with ice-cold buffer. The cells were lysed in 1 mL of 0.5% Triton X-100, and aliquots of the cell lysates were transferred to scintillation vials to determine the incorporated radioactivity by scintillation counting. Inhibition studies were carried out by adding various concentrations of unlabeled compounds to the uptake medium.

T1 sequence (Q9UGM1 26-479 limits assumed): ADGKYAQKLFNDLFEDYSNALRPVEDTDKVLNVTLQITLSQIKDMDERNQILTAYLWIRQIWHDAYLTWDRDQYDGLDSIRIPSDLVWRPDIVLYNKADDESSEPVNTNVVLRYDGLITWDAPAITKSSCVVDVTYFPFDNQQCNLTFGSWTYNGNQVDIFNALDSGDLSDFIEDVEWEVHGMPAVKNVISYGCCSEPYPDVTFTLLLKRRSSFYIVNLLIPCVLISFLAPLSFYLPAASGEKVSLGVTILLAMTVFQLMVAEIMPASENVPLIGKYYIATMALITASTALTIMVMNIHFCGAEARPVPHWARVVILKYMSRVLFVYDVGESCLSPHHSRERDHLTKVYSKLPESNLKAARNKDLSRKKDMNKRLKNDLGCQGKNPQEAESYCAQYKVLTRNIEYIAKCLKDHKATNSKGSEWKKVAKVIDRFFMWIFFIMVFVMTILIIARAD

## O=C(O[C@@H]1Cc2c(O)cc(O)cc2O[C@@H]1c1cc(O)c(O)c(O)c1)c1cc(O)c(O)c(O)c1 [EGCG, (−)-epigallocatechin-3-gallate]
α9-nAChR protein; 24 h pretreatment (LY294002 25 μM or EGCG 10 μM), then Nic 10 μM or E2 10 nM 24 h
  Nic- and E2-induced upregulation of α9-nAChR protein after inhibitor pretreatment: almost completely inhibited; also recorded: significantly inhibited
α9-nAChR protein; EGCG 1 μM with Nic 10 μM, 24 h
  α9-nAChR protein in Nic-treated cells: downregulated
α9-nAChR protein; Nic 10 μM or E2 10 nM in presence of EGCG 1-10 μM, 24 h
  α9-nAChR protein expression induced by either Nic or E2: significantly inhibited
α9-nAChR mRNA; EGCG 1 μM with Nic 10 μM, RT-PCR
  α9-nAChR mRNA in Nic-treated cells: downregulated
α9-nAChR mRNA; EGCG 10 μM, Nic 10 μM or E2 10 nM
  Nic- or E2-induced α9-nAChR mRNA upregulation (real-time PCR): completely attenuated
AP-1
  Nic-induced AP-1 binding to the α9-nAChR promoter: attenuated
p53
  p53 binding to the α9-nAChR promoter (−125 to 0): not affected
MCF-7 cells; EGCG 10 μM, 24 h pretreatment, then Nic 10 μM 24 h
  Nic-induced cellular proliferation effects in (C) and (Sc) cells: reversed
MCF-7 cells; MCF-7, EGCG 10-25 μM, 24 h pretreatment, dose-dependent
  Nic-stimulated proliferation: blocked
MCF-7 cells; combined treatment with EGCG 10 μM and Nic 10 μM
  cell proliferation in Nic-treated α9-nAChR (Si) cells compared with Sc cells: profoundly inhibited
α9-nAChR; EGCG 10 μM 24 h pretreatment
  [^3H]-Nic binding activity in α9-nAChR (Si) cells compared with Sc or wild-type cells: profoundly inhibited
α9-nAChR; EGCG pretreatment
  inhibition of [^3H]-Nic binding activity in (Si) cells compared with Sc or wild-type cells: > 90%
α9-nAChR; MCF-7, EGCG 24 h, wash, then [^3H]-Nic 24 h
  [^3H]-Nic binding activity, EGCG pretreated then washed group: not significantly inhibited
α9-nAChR; MCF-7, [^3H]-Nic + EGCG cotreatment 24 h
  [^3H]-Nic binding activity, EGCG cotreated group: not significantly inhibited
α9-nAChR; wild-type MCF-7, EGCG 10 μM 24 h, then [^3H]-Nic cotreatment 24 h
  relative [^3H]-Nic binding activity, EGCG pretreated group: significantly blocked; also recorded: profoundly inhibited
